This experiment relates to L1210 leukemia ip in BDF1 mice, survival T/C. The experiment is described as follows: NCI In Vivo Anticancer Drug Screen. Data for tumor model L1210 Leukemia (intraperitoneal) in B6D2F1 (BDF1) mice. As to conditions: higher = longer survival. In short, it runs like this:
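Tumor was transplanted into mice, which were then dosed with test compound or vehicle alone. Survival was recorded for each group, and the treated figure was expressed relative to the control figure.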

Where [1] appears, read: endpoint: mean survival time, dose: 100.0 mg/kg/injection, schedule: Q01DX001 (ip), vehicle: saline with Tween-80.
Setting [2] is: endpoint: mean survival time, dose: 200.0 mg/kg/injection, schedule: Q01DX001 (ip), vehicle: saline with Tween-80.
[3] abbreviates: endpoint: mean survival time, dose: 400.0 mg/kg/injection, schedule: Q01DX001 (ip), vehicle: saline with Tween-80.
Setting [4] is: endpoint: mean survival time, dose: 15.0 mg/kg/injection, schedule: Q01DX Z (ip), vehicle: carboxymethylcellulose (CMC).
The mark [5] stands for this setting: endpoint: mean survival time, dose: 30.0 mg/kg/injection, schedule: Q01DX Z (ip), vehicle: carboxymethylcellulose (CMC).
The mark [6] stands for this setting: endpoint: mean survival time, dose: 60.0 mg/kg/injection, schedule: Q01DX Z (ip), vehicle: carboxymethylcellulose (CMC).
Setting [7] is: endpoint: mean survival time, dose: 120.0 mg/kg/injection, schedule: Q01DX Z (ip), vehicle: carboxymethylcellulose (CMC).
The mark [8] stands for this setting: endpoint: mean survival time, dose: 100.0 mg/kg/injection, schedule: Q04DX002 (ip), vehicle: saline with Tween-80.
Where [9] appears, read: endpoint: mean survival time, dose: 200.0 mg/kg/injection, schedule: Q04DX002 (ip), vehicle: saline with Tween-80.

Molecules are shown by their SMILES. Where “and” joins values, the source holds several entries; their conditions need not be identical. Equal entries are not always repeated. Toxic doses and inconclusive results are not listed.

`O=[N+]([O-])c1cccc(CNc2ccccc2)c1`: the T/C runs as follows: under setting [1], 98 % of control; under setting [2], 95 % of control; under setting [3], 93 % of control.

For the compound `CC(=O)Nc1ccc(/C(C#N)=C/c2ccc(N(C)CCC#N)cc2)cc1`, the T/C runs as follows: (endpoint: mean survival time, dose: 100.0 mg/kg/injection, schedule: Q01DX009 (ip), vehicle: Klucel (hydroxypropylcellulose) (HPC)) 98 % of control; (endpoint: mean survival time, dose: 200.0 mg/kg/injection, schedule: Q01DX009 (ip), vehicle: Klucel (hydroxypropylcellulose) (HPC)) 100 % of control; (endpoint: mean survival time, dose: 400.0 mg/kg/injection, schedule: Q01DX009 (ip), vehicle: Klucel (hydroxypropylcellulose) (HPC)) 96 % of control.

As to `CCC1(CCC(C)C)C(=O)NC(=S)N(C)C1=O` (configuration not stated), the T/C was 89 % of control (endpoint: mean survival time, dose: 75.0 mg/kg/injection, schedule: Q01DX001 (ip), vehicle: carboxymethylcellulose (CMC)); 97 % of control (endpoint: mean survival time, dose: 75.0 mg/kg/injection, schedule: Q01DX001 (ip), vehicle: other); 89 % of control (endpoint: mean survival time, dose: 150.0 mg/kg/injection, schedule: Q01DX001 (ip), vehicle: carboxymethylcellulose (CMC)); 103 % of control (endpoint: mean survival time, dose: 150.0 mg/kg/injection, schedule: Q01DX001 (ip), vehicle: other); 91 % of control (endpoint: mean survival time, dose: 300.0 mg/kg/injection, schedule: Q01DX001 (ip), vehicle: carboxymethylcellulose (CMC)); 121 % of control (endpoint: mean survival time, dose: 300.0 mg/kg/injection, schedule: Q01DX001 (ip), vehicle: other).

In the case of `CN=C(N)N(C)/N=C(C)\C=N\N(C)C(N)=NC`, the T/C is 98 % of control under setting [4]; 96 % of control under setting [5]; 101 % of control under setting [6]; 113 % of control under setting [7]; 104 % of control (endpoint: mean survival time, dose: 240.0 mg/kg/injection, schedule: Q01DX Z (oral), vehicle: carboxymethylcellulose (CMC)); 104 % of control (endpoint: mean survival time, dose: 480.0 mg/kg/injection, schedule: Q01DX Z (oral), vehicle: carboxymethylcellulose (CMC)).

Consider `O=C(Nc1ccc(C2=NCCN2)cc1)c1cccc(C(=O)Nc2ccc(C3=NCCN3)cc2)n1`, for which the T/C by setting is: (endpoint: mean survival time, dose: 15.0 mg/kg/injection, schedule: Q01DX Z (ip), vehicle: methylcellulose (MC)) 96 % of control; (endpoint: mean survival time, dose: 30.0 mg/kg/injection, schedule: Q01DX Z (ip), vehicle: methylcellulose (MC)) 93 % of control; (endpoint: mean survival time, dose: 60.0 mg/kg/injection, schedule: Q01DX Z (ip), vehicle: methylcellulose (MC)) 104 % of control and 111 % of control; (endpoint: mean survival time, dose: 240.0 mg/kg/injection, schedule: Q01DX Z (ip), vehicle: methylcellulose (MC)) 120 % of control; (endpoint: mean survival time, dose: 480.0 mg/kg/injection, schedule: Q01DX Z (ip), vehicle: methylcellulose (MC)) 95 % of control.

Consider `CC(C)OC(=O)Nc1ccc(Cl)cc1`, for which the T/C (endpoint: mean survival time, dose: 100.0 mg/kg/injection, schedule: Q01DX009 (ip), vehicle: saline with Tween-80) was 94 % of control; the T/C (endpoint: mean survival time, dose: 200.0 mg/kg/injection, schedule: Q01DX009 (ip), vehicle: saline with Tween-80) is 97 % of control; the T/C (endpoint: mean survival time, dose: 400.0 mg/kg/injection, schedule: Q01DX009 (ip), vehicle: saline with Tween-80) was 94 % of control.

Turning to `Cn1cnc([N+](=O)[O-])c1Sc1nc(N)nc2c1ncn2C1CC(O)C(CO)O1` (configuration not stated), the T/C by setting is: (endpoint: mean survival time, dose: 6.25 mg/kg/injection, schedule: Q01DX005 (ip), vehicle: saline) 155 % of control; (endpoint: mean survival time, dose: 12.5 mg/kg/injection, schedule: Q01DX005 (ip), vehicle: saline) 173 % of control; (endpoint: mean survival time, dose: 25.0 mg/kg/injection, schedule: Q01DX005 (ip), vehicle: saline) 150 % of control; (endpoint: mean survival time, dose: 100.0 mg/kg/injection, schedule: Q01DX005 (ip), vehicle: saline) 94 % of control; (endpoint: mean survival time, dose: 200.0 mg/kg/injection, schedule: Q01DX005 (ip), vehicle: saline) 107 % of control; (endpoint: mean survival time, dose: 240.0 mg/kg/injection, schedule: Q01DX005 (ip), vehicle: saline) 122 % of control. The T/C (endpoint: mean survival time, dose: 600.0 mg/kg/injection, schedule: Q01DX005 (ip), vehicle: saline) was 115 % of control.

Take `CC(=O)OC1COC(Cl)C(OC(C)=O)C1OC(C)=O` (configuration not stated): the T/C is 103 % of control (endpoint: mean survival time, dose: 100.0 mg/kg/injection, schedule: Q01DX001 (sc), vehicle: olive oil, sesame oil, peanut oil); 97 % of control (endpoint: mean survival time, dose: 200.0 mg/kg/injection, schedule: Q01DX001 (sc), vehicle: olive oil, sesame oil, peanut oil); 97 % of control (endpoint: mean survival time, dose: 400.0 mg/kg/injection, schedule: Q01DX001 (sc), vehicle: olive oil, sesame oil, peanut oil).

Regarding `NNc1ncnc2c1ccn2C1OC(CO)C(O)C1O` (configuration not stated), the T/C was 110 % of control (endpoint: mean survival time, dose: 5.0 mg/kg/injection, schedule: Q01DX001 (ip), vehicle: saline); 110 % of control (endpoint: mean survival time, dose: 10.0 mg/kg/injection, schedule: Q01DX001 (ip), vehicle: saline); 121 % of control (endpoint: mean survival time, dose: 20.0 mg/kg/injection, schedule: Q01DX001 (ip), vehicle: saline); 108 % of control (endpoint: mean survival time, dose: 35.0 mg/kg/injection, schedule: Q01DX001 (ip), vehicle: saline); 115 % of control (endpoint: mean survival time, dose: 40.0 mg/kg/injection, schedule: Q01DX001 (ip), vehicle: saline); 114 % of control (endpoint: mean survival time, dose: 53.0 mg/kg/injection, schedule: Q01DX001 (ip), vehicle: saline). Moreover, the T/C (endpoint: mean survival time, dose: 80.0 mg/kg/injection, schedule: Q01DX001 (ip), vehicle: saline) is 114 % of control and the T/C (endpoint: mean survival time, dose: 100.0 mg/kg/injection, schedule: Q01DX001 (ip), vehicle: saline) is 119 % of control.

Regarding `CC(=O)OC1C(O)C(C)OC(OC2C(OC(=O)C3CCC4C(C3)OC3(CC(OC(=O)/C=C/c5ccccc5)C(C)CO3)C43CO3)OC(C)C(O)C2OC(C)=O)C1O` (configuration not stated), the T/C runs as follows: (endpoint: median survival time, dose: 0.5 mg/kg/injection, schedule: Q01DX009 (ip), vehicle: distilled water + Tween-80) 92 % of control; (endpoint: median survival time, dose: 1.0 mg/kg/injection, schedule: Q01DX009 (ip), vehicle: distilled water + Tween-80) 95 % of control; (endpoint: median survival time, dose: 2.0 mg/kg/injection, schedule: Q01DX009 (ip), vehicle: distilled water + Tween-80) 95 % of control; (endpoint: median survival time, dose: 4.0 mg/kg/injection, schedule: Q01DX009 (ip), vehicle: distilled water + Tween-80) 104 % of control; (endpoint: median survival time, dose: 8.0 mg/kg/injection, schedule: Q01DX009 (ip), vehicle: distilled water + Tween-80) 107 % of control; (endpoint: median survival time, dose: 16.0 mg/kg/injection, schedule: Q01DX009 (ip), vehicle: distilled water + Tween-80) 115 % of control. Besides, under “endpoint: median survival time, dose: 32.0 mg/kg/injection, schedule: Q01DX009 (ip), vehicle: distilled water + Tween-80”, the T/C was 104 % of control.

On to `CCCCc1cn(C(C)=O)nn1`, for which the T/C was 106 % of control under setting [8] and 100 % of control under setting [9].

Take `CCC(=O)/C=C/c1ccccc1OC`: the T/C under setting [8] is 97 % of control; the T/C under setting [9] is 105 % of control; the T/C (endpoint: mean survival time, dose: 400.0 mg/kg/injection, schedule: Q04DX002 (ip), vehicle: saline with Tween-80) was 105 % of control.

Consider `COc1cc(CC2C(O)C3CCN2CC3)cc(OC)c1OC` (configuration not stated), for which the T/C reads like this: (endpoint: mean survival time, dose: 25.0 mg/kg/injection, schedule: Q04DX002 (ip), vehicle: saline) 101 % of control; (endpoint: mean survival time, dose: 50.0 mg/kg/injection, schedule: Q04DX002 (ip), vehicle: saline) 101 % of control; (endpoint: mean survival time, dose: 100.0 mg/kg/injection, schedule: Q04DX002 (ip), vehicle: saline) 97 % of control and 104 % of control.

Take `O=C1CCC23/C=C/C(=O)NCCCCNCCCNC(=O)/C=C/c4ccc(c2c4)OC3C1` (configuration not stated): the T/C is 101 % of control under setting [1], 95 % of control under setting [2] and 91 % of control under setting [3].

As for `CCOc1ccc2nc(/C=C/c3ccccc3)ccc2c1`, the T/C reads like this: (endpoint: mean survival time, dose: 200.0 mg/kg/injection, schedule: Q01DX001 (ip), vehicle: carboxymethylcellulose (CMC)) 89 % of control; (endpoint: mean survival time, dose: 400.0 mg/kg/injection, schedule: Q01DX001 (ip), vehicle: carboxymethylcellulose (CMC)) 101 % of control.

In the case of `Cn1c(=O)c2[nH]cnc2n(C)c1=O` (tested in a mixture with another compound), the T/C is 97 % of control (endpoint: mean survival time, dose: 100.0 mg/kg/injection, schedule: Q04DX003 (ip), vehicle: saline with Tween-80) and 96 % of control (endpoint: mean survival time, dose: 200.0 mg/kg/injection, schedule: Q04DX003 (ip), vehicle: saline with Tween-80).

As for `CCCCCCCCCCCCCCCCCCNC(=S)NN=C(NNC(=S)NCCCCCCCCCCCCCCCCCC)NNC(=S)NCCCCCCCCCCCCCCCCCC`, the T/C reads like this: under setting [4], 101 % of control; under setting [5], 111 % of control; under setting [6], 109 % of control and 114 % of control; under setting [7], 114 % of control; (endpoint: mean survival time, dose: 240.0 mg/kg/injection, schedule: Q01DX Z (ip), vehicle: carboxymethylcellulose (CMC)) 111 % of control; (endpoint: mean survival time, dose: 480.0 mg/kg/injection, schedule: Q01DX Z (ip), vehicle: carboxymethylcellulose (CMC)) 111 % of control.

The record behind these values is PubChem BioAssay AID248 (DTP/NCI, 2004).
